Like-named read-outs stand apart in the source and are kept apart here.
Target: GluN1/GluN2B-ΔNTD receptors (Rattus norvegicus (GluN1); Mus musculus (GluN2B), UniProt P35439+Q01097)
Assay: TEVC on Xenopus oocytes, GluN2B NTD-deleted receptors
Type: cell-based
Details: for Relative current (IOpto/I0): GluN1/GluN2B-DeltaNTD
From the text: We finally investigated the location of the OptoNAM-3 binding-site on the receptor. […] The binding site for GluN2B-selective antagonists at the GluN1/GluN2B NTD dimer interface contains two partially overlapping pockets that accommodate GluN2B-selective NAMs of distinct chemical scaffolds:[19] either scaffolds related to ifenprodil or scaffolds related to another GluN2B-selective NAM called EVT-101.[47]
We used cDNA coding for rat GluN1–1a (named GluN1 herein) (GenBank: U08261.1), rat GluN2A (GenBank: D13211.1), mouse GluN2B (GenBank: D10651.2), rat GluA1 flop (GenBank: M36418.2), and rat Myc-GluA2(Q)-flip (GenBank: AF164344.1) cloned into pcDNA3-based expression plasmids. GluK2 (GenBank: Z11548.1) corresponds to the fully RNA-edited version.[80] The GluN2B-ΔNTD construct is from ref[45] and GluN2B–N615K is from ref[81]. Single mutants GluN2B-Q110G and GluN1-L135H were from ref[19]. The GluA2 cDNA contains a Myc tag ([…]) fused between the signal peptide and the N-terminus sequences, and the GluA2 subunit is […] for its Q/R/N site (GluA2(Q)) to allow permeation of homomeric GluA2 receptors.[2] cDNAs coding for rat GluN2C (GenBank: M91563.1) and GluN2D subunits (GenBank: L31611.1) were in prK5 plasmids.
Expression of recombinant NMDA receptors was obtained by oocyte nuclear coinjection of 37 nL of a mixture of cDNAs (at 30 ng/μL) coding for GluN1–1a and various GluN2 subunits (ratio 1:1). The protocol in ref[43] was followed for the expression of GluN1/GluN2A/GluN2B triheteromers. The oocytes were transferred in 96-well plates filled with Barth solution (in mM: 88 NaCl, 1 KCl, 0.33 Ca(NO3)2, 0.41 CaCl2, 0.82 MgSO4, 2.4 NaHCO3, and 7.5 HEPES, pH adjusted to 7.3 with NaOH), supplemented with gentamicin ([…]) and 50 μM APV, a selective NMDA receptor antagonist. Plates were then stored at 18 °C for 24 h for GluN1/GluN2A expression and for 48––72 h for the expression of GluN1/Glu2B, GluN1/GluN2A/GluN2B, and mutants.
TEVC recordings were performed 1–3 days following injection. TEVC recordings were performed using an Oocyte Clamp amplifier OC-725 (Warner Instruments) and computer-controlled via a 1440A Digidata (Molecular Devices). Currents were sampled at 100 Hz and low-pass-filtered at 20 Hz using an 8-pole Bessel filter (900 Series, Frequency Devices Inc.). Data were collected with Clampfit 10.3. During the recording, the cells were continuously perfused with external recording Ringer solution at pH 7.3 (in mM: 100 NaCl, 0.3 BaCl2, 5 HEPES, and 2.5 KCl, pH adjustment to 7.3 by the addition of NaOH). The NMDA currents were induced by simultaneous application of L-glutamate and glycine (agonist solution) at saturating concentration (100 μM each), and DTPA (10 μM) to prevent receptor inhibition by ambient zinc (∼20 nM).[83] A control solution (100 μM glycine and 10 μM DTPA in Ringer pH 7.3) was used for washout of drug and test solutions. AMPA and kainate receptor currents were induced in the same conditions as NMDA currents (100 μM glutamate and glycine + 10 μM DTPA). Oocytes expressing GluK2 kainate receptors were treated with concanavalin A ([…], equivalent to 1.1 mg/mL) during 10 min before recording to decrease receptor desensitization. Unless notified, recordings were performed at a holding potential of −60 mV. All experiments were performed at room temperature.
OptoNAMs were diluted as stock solutions of 50 to 0.5 mM in DMSO. On the day of the experiment, they were diluted to the appropriate concentration in the recording solution and kept in the dark during the whole duration of the experiment to avoid photoconversion.

GluN1/GluN2B-ΔNTD receptors, sequence (Q01097 395-1482, stated change not applied, other chains not shown): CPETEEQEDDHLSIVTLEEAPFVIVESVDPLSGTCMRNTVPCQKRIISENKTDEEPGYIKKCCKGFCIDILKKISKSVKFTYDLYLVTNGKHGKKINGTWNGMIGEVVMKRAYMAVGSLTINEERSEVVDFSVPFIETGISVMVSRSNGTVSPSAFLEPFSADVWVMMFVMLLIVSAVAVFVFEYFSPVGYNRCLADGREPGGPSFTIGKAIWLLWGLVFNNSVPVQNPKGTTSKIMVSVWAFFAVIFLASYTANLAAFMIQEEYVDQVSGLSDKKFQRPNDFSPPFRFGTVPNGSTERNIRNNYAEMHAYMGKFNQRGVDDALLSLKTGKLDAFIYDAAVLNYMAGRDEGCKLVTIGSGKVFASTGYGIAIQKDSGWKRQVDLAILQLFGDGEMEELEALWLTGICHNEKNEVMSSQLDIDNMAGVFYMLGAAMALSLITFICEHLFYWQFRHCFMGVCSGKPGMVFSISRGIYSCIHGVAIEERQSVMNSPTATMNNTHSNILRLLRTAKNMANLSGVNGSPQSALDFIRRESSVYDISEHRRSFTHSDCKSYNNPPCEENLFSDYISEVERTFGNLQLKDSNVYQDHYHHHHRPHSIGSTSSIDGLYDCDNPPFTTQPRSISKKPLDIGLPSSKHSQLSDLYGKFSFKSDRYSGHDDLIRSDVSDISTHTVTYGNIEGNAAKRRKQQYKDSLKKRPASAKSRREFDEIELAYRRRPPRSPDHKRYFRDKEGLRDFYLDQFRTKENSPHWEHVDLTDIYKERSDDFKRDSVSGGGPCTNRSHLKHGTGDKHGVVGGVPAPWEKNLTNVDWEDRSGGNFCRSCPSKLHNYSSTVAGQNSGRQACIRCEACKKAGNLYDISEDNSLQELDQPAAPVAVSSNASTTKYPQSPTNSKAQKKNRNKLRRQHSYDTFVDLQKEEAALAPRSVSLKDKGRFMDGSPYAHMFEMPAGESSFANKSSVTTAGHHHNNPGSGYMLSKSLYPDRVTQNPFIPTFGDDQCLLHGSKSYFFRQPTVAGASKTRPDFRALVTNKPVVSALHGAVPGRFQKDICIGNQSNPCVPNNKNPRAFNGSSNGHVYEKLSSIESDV

inhibition of GluN1/GluN2B-DeltaNTD (1 µM trans-OptoNAM-3 (dark), calculated from the dose-response curve): 2.150%
IC50 (365 nm PSS, read-out: IC50 on GluN1/GluN2B-ΔNTD receptors pre-illuminated with 365 nm): 25 ± 6 µM
Relative current (IOpto/I0) (OptoNAM-3 365 nm PSS, [OptoNAM-3] 0.3 µM): 0.952
Relative current (IOpto/I0) (OptoNAM-3 365 nm PSS, [OptoNAM-3] 2 µM): 0.900
Relative current (IOpto/I0) (OptoNAM-3 365 nm PSS, [OptoNAM-3] 5 µM): 0.779
Relative current (IOpto/I0) (OptoNAM-3 365 nm PSS, [OptoNAM-3] 20 µM): 0.661
Relative current (IOpto/I0) (OptoNAM-3 365 nm PSS, [OptoNAM-3] 30 µM): 0.421
Relative current (IOpto/I0) (OptoNAM-3 365 nm PSS, [OptoNAM-3] 67 µM): 0.119
Relative current (IOpto/I0) (OptoNAM-3 dark PSS (trans), [OptoNAM-3] 0.3 µM): 0.969
Relative current (IOpto/I0) (OptoNAM-3 dark PSS (trans), [OptoNAM-3] 2 µM): 0.866
Relative current (IOpto/I0) (OptoNAM-3 dark PSS (trans), [OptoNAM-3] 5 µM): 0.809
Relative current (IOpto/I0) (OptoNAM-3 dark PSS (trans), [OptoNAM-3] 20 µM): 0.542
Relative current (IOpto/I0) (OptoNAM-3 dark PSS (trans), [OptoNAM-3] 30 µM): 0.365
Relative current (IOpto/I0) (OptoNAM-3 dark PSS (trans), [OptoNAM-3] 67 µM): 0.033
shift in IC50 between wt and GluN1/GluN2B-ΔNTD receptors (dark): 100 fold
IC50 (dark, read-out: IC50 on GluN1/GluN2B-ΔNTD receptors in the dark): 20 ± 4 µM
Structure (SMILES): c1ccc(/N=N/c2ccc(CCNc3ccncc3)cc2)cc1 [OptoNAM-3, (E)-N-(4-(Phenyldiazenyl)phenethyl)pyridin-4-amine]
